Results from PubChem BioAssay (NCI).
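Test compounds were applied to cells in 96-well plates for 48 hours at 5 doses. Here, GI50 denotes the concentration required for 50% inhibition of growth. TGI: total growth inhibition.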

What was measured:
Test in all cases: NCI anticancer screen, dose series, 48 h
HCC-2998 colon = test system: HCC-2998 colon
HCT-15 colon = test system: HCT-15 colon
T-47D breast = test system: T-47D breast
EKVX NSCLC = test system: EKVX NSCLC
ACHN renal = test system: ACHN renal
HOP-92 NSCLC = test system: HOP-92 NSCLC
A498 renal = test system: A498 renal
HT29 colon = test system: HT29 colon
M14 melanoma = test system: M14 melanoma

| Compound | TGI (HCC-2998 colon) | TGI (HCT-15 colon) | TGI (T-47D breast) | TGI (EKVX NSCLC) | TGI (ACHN renal) | TGI (HOP-92 NSCLC) | TGI (A498 renal) | TGI (HT29 colon) | TGI (M14 melanoma) | GI50 (HCC-2998 colon) | GI50 (HCT-15 colon) | GI50 (T-47D breast) | GI50 (EKVX NSCLC) | GI50 (ACHN renal) | GI50 (HOP-92 NSCLC) | GI50 (A498 renal) | GI50 (HT29 colon) | GI50 (M14 melanoma) |
| --- | --- | --- | --- | --- | --- | --- | --- | --- | --- | --- | --- | --- | --- | --- | --- | --- | --- | --- |
| c1cnc(N2CCN(Cc3c[nH]c4ccccc34)CC2)nc1 | 38.9 µM | > 100 µM | 72.2 µM | > 100 µM | > 100 µM | > 100 µM | > 100 µM | > 100 µM | > 100 µM | – | – | – | – | – | – | – | – | – |
| COC(OC)[C@@H]1OC[C@@H](O)[C@@H]1n1cnc2c(N)ncnc21 | > 100 µM | > 100 µM | > 100 µM | > 100 µM | > 100 µM | > 100 µM | > 100 µM | > 100 µM | > 100 µM | – | – | – | – | – | – | – | – | – |
| Fc1cccc(F)c1C1SCc2nc3ccc(Cl)cc3n21 (stereo unspecified) | > 100 µM | > 100 µM | > 100 µM | > 100 µM | > 100 µM | > 100 µM | – | > 100 µM | > 100 µM | – | – | – | – | – | – | – | – | – |
| CC1(C)CC(=O)C2=C(C1)OC1=C(CC(C)(C)CC1=O)C2c1ccccc1[N+](=O)[O-] (stereo unspecified) | > 100 µM | > 100 µM | > 100 µM | > 100 µM | > 100 µM | > 100 µM | > 100 µM | > 100 µM | > 100 µM | – | – | – | – | – | – | – | – | – |
| O=C(CCc1ccccc1)On1c(-c2ccccc2)nc2ccccc2c1=S | 27.8 µM | 67.5 µM | > 100 µM | 52.1 µM | > 100 µM | > 100 µM | > 100 µM | > 100 µM | 44.7 µM | – | – | – | – | – | – | – | – | – |
| Clc1ccc(OCc2nn3c(CCc4nnc5sc(COc6ccc(Cl)cc6)nn45)nnc3s2)cc1 | – | 95.8 µM | > 100 µM | > 100 µM | 41 µM | – | 42.8 µM | > 100 µM | > 100 µM | – | – | – | – | – | – | – | – | – |
| Oc1[nH]c2ccccc2c1/C=c1/cc2c(c(-c3ccc(F)cc3)n1)=Nc1ccccc1-2 | 2.16 µM | 2.43 µM | 2.13 µM | 72.7 µM | 2.54 µM | 0.981 µM | 1.85 µM | 1.43 µM | 1.41 µM | 0.726 µM | 0.735 µM | 0.501 µM | 3.01 µM | 1.12 µM | 0.162 µM | 0.309 µM | 0.384 µM | 0.315 µM |
| COc1cc(-c2ccccc2N)c2cccnc2c1OC | – | 16.1 µM | 13.7 µM | 13.8 µM | 15.2 µM | 22.3 µM | 27.2 µM | 16.3 µM | 19.3 µM | – | – | – | – | – | – | – | – | – |
| CCOC(=O)C1=C(C)N(c2ccc(OC)cc2)C2(O)C=CC(=O)C3=C(O)c4ccccc4C(=O)C312 (stereo unspecified) | – | 20.9 µM | 32.7 µM | 23.4 µM | 39.3 µM | 9.75 µM | 27 µM | 32.7 µM | 21.8 µM | – | – | – | – | – | – | – | – | – |
| C[Si](C)(c1ccccc1)[C@H]1CCCC=C1CCNC1c2ccccc2CCc2ccccc21 | > 100 µM | > 100 µM | > 100 µM | > 100 µM | > 100 µM | > 100 µM | > 100 µM | > 100 µM | > 100 µM | – | – | – | – | – | – | – | – | – |
| O=C(NNc1nc(-c2ccccc2)cs1)C(F)(F)F | > 100 µM | > 100 µM | > 100 µM | > 100 µM | > 100 µM | – | 88.2 µM | > 100 µM | > 100 µM | – | – | – | – | – | – | – | – | – |
| O=C1c2cn[nH]c2C(c2ccccc2)N1c1ccccc1 (stereo unspecified) | > 10 µM | > 10 µM | > 10 µM | > 10 µM | > 10 µM | > 10 µM | > 10 µM | > 10 µM | > 10 µM | – | – | – | – | – | – | – | – | – |
| O=c1cnn(CCOCP(=O)(O)O)c(=O)[nH]1 | > 100 µM | – | > 100 µM | > 100 µM | > 100 µM | > 100 µM | > 100 µM | > 100 µM | > 100 µM | – | – | – | – | – | – | – | – | – |
| C[Si](C)(C)C1=C([Si](C)(C)C)C(Cl)(Cl)C1=O | 17.6 µM | 4.05 µM | 6.35 µM | 16.2 µM | 4.9 µM | 5.55 µM | 29.8 µM | 13.7 µM | 9.24 µM | – | – | – | – | – | – | – | – | – |
| CCCC(CCN)(CCN)[N+](=O)[O-] | – | > 100 µM | > 100 µM | > 100 µM | > 100 µM | – | > 100 µM | > 100 µM | > 100 µM | – | – | – | – | – | – | – | – | – |
| COc1ccc(C(C2=C(O)COC2=O)c2cc3c(cc2O)OCO3)cc1OC (stereo unspecified) | > 100 µM | > 100 µM | – | > 100 µM | > 100 µM | > 100 µM | > 100 µM | > 100 µM | > 100 µM | – | – | – | – | – | – | – | – | – |
| CN(C)/N=C1\CC(c2ccccc2)C(C#N)(C#N)C1(C#N)C#N (stereo unspecified) | 33.1 µM | 30.1 µM | 50.3 µM | > 100 µM | 34.8 µM | 29.7 µM | 33.8 µM | 50.5 µM | 34.3 µM | – | – | – | – | – | – | – | – | – |
| CC(C)(C)N(Cc1ccc2c(c1)OCO2)C(=O)/C=C\Sc1ccccc1 | > 100 µM | > 100 µM | > 100 µM | > 100 µM | > 100 µM | 91 µM | > 100 µM | > 100 µM | > 100 µM | – | – | – | – | – | – | – | – | – |
| CC(=O)N1CCn2c1nc1cc(Cl)ccc12 | > 100 µM | > 100 µM | 51.4 µM | > 100 µM | > 100 µM | 81.4 µM | > 100 µM | > 100 µM | > 100 µM | – | – | – | – | – | – | – | – | – |
| CSc1c(C(=O)Nc2ccc(Cl)cc2)c(N)n(N)c(=O)c1C#N | > 100 µM | > 100 µM | > 100 µM | > 100 µM | – | – | > 100 µM | > 100 µM | > 100 µM | – | – | – | – | – | – | – | – | – |
| COc1ccc2c(OCc3nnc4ccc(-c5ccccc5)nn34)ccnc2c1 | > 100 µM | > 100 µM | – | > 100 µM | – | > 100 µM | > 100 µM | > 100 µM | > 100 µM | > 100 µM | > 100 µM | – | > 100 µM | – | > 100 µM | > 100 µM | > 100 µM | > 100 µM |
